Data as given in patent EP0457381B1, “Delta 2-cephem sulphones” (PHARMACIA S.p.A., priority 1990, dated 1991).

Biological target: T1, human leukocyte elastase (HLE) (Homo sapiens, UniProt P08246)
T1 construct: purchased Calbiochem
T1 sequence (P08246 30-267): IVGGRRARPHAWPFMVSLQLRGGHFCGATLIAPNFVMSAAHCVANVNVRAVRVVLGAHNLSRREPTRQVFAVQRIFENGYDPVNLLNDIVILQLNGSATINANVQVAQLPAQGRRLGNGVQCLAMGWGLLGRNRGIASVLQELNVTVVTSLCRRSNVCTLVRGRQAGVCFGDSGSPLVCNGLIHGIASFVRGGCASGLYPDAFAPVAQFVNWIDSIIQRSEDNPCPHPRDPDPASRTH
Test: Kinetic parameters of HLE inhibition, fluorogenic substrate N-methoxysuccinyl-alanyl-alanyl-prolyl-valyl-7-amido-4-methylcoumarin
Format: biochemical
Settings: HLE (Calbiochem), 37°C, phosphate buffer pH 7.4, I= 0.15, 1% DMSO and 1% MeCN; for Ki: apparent dissociation constant of HLE-inhibitor complex at steady state; for k₅/Ki: rate of formation of HLE-inhibitor complex
Description: The inhibitory activity on human leukocyte elastase (HLE) of Δ-cephem sulphones of the invention, designated as Compound 4 and Compound 5 in Table 1 above, and of the Δ³-cephem sulphone Merck S.&D. L-659,286, which, to our best knowledge, is the most advanced β-lactam product under study as an HLE-inhibitor (Ann. Rev. Resp. Dis. 1988, 137:204; Journal of Cellular Biochemistry 1989, 39:47), was compared as described below.
The reference compound 7α-methoxy-3-(2-methyl-5-oxo-6-hydroxy-2,5-dihydro-1,2,4-triazin-3-yl)thiomethyl-3-cephem-4-pyrrolidine-carboxamide-1,1-dioxide (Merck's code-name; L-659,286) was synthesized in our laboratories from 7-amino-3-desacetoxy-cephalosporanic acid. Its structural identity and purity (≥95%) was confirmed by spectral and analytical data.
The kinetic parameters of HLE (Calbiochem) inhibition were determined at 37°C in phosphate buffer (pH 7.4, I= 0.15) with 1% DMSO and 1% MeCN as solubilizing vehicles, monitoring fluorometrically (λex= 383 nm; λem = 455 nm) the release of 7-amino-4-methylcoumarin from the fluorogenic substrate N-methoxysuccinyl-alanyl-alanyl-prolyl-valyl-7-amido-4-methylcoumarin. Best fit to the progress curves was obtained by a two-step mechanism (mechanism B in J.F. Morrison, TIBS 1982, 7:102; see also J.F. Morrison and C.T. Walsh, Advances in Enzymology, vol. 61, A. Meister editor, John Wiley & Sons 1988): [drawing 9] Product release versus time was analysed using the following function: [P] = vs t + (vi -vs (1-e)^-kt )/k [formula] wherein [P] = product concentration, vs = steady state rate, vi = initial rate of product release and k = k6 + (k5 /Ki )([I])/(1 + [S]/Km + [I]/Ki); Ki = k4 /k3 [formula] wherein [I] and [S] = inhibitor and substrate concentration, and Km = Michaelis constant for the enzymesubstrate pair (independently determined under the same experimental conditions). At steady state, inhibition is fully determined by the steady-state inhibition constant Ki* (steady state): Ki * = Ki (k6)/(k5 + k6) [formula]

Row | Structure (SMILES) | Ki [nM] | k₅/Ki
1 | COC(=O)C1(/C=C\C(=O)OC(C)(C)C)C(C)=CS(=O)(=O)[C@@H]2[C@@H](Cl)C(=O)N21 (stereo partly drawn) [Compound 4, Methyl 7α-chloro-4-[(Z)-2-tert-butoxycarbonylethenyl]-3-methyl-2-cephem-4-carboxylate-1,1-dioxide] | 64 | k₅/Ki = 7,200 M⁻¹s⁻¹
2 | COC(=O)C1(C=CC(=O)OC(C)(C)C)C(C)=C(/C=C/C(=O)OC(C)(C)C)S(=O)(=O)[C@@H]2[C@@H](Cl)C(=O)N21 (stereo partly drawn) [Compound 5, Methyl-7α-Chloro-2,4-bis[2-tert-butoxycarbonylethenyl]-3-methyl-2-cephem-4-carboxylate-1,1-dioxide] | 5.2 | –
3 | CO[C@H]1C(=O)N2C(C(=O)N3CCCC3)=C(CSc3nc(=O)c(O)nn3C)CS(=O)(=O)[C@H]12 [Reference compound, 7α-methoxy-3-(2-methyl-5-oxo-6-hydroxy-2,5-dihydro-1,2,4-triazin-3-yl)thiomethyl-3-cephem-4-pyrrolidine-carboxamide-1,1-dioxide, reference compound] | 140 | k₅/Ki = 8,000 M⁻¹s⁻¹
